Experiments:
[1] = tested on: C. albicans 98-17 and C. albicans 98-234; experiment: In vitro susceptibility, broth microdilution, both isolates; assay type: cell-based; conditions: Candida albicans
Experimental: (§1) C. albicans 98-17 and C. albicans 98-234 were maintained on SDA plates. Susceptibility of yeast isolates was performed using broth microdilution in RPMI-1640 (supplemented with 0.165 M morpholinepropanesulfonic acid, buffered to pH 7.0) according to procedures recommended in NCCLS M27-A2 (25). Test drug solutions were incubated with yeast inoculum at 35° C. in 96-well plates for a 24 h period. All measurements were done in triplicate. Percent yeast growth relative to drug-free control was determined by measuring optical density (OD) at 650 nm, using the Microplate EL 312e plate reader. […] The MIC values were expressed as a mean of three determinations.
(§2) Calculation of a combination index was done in two steps. First, inhibition of fungal growth in response to varying concentrations of single-drug was fit to median-effect function:
(§3) where fa is the mean growth inhibition, relative to drug-free control, Dm is the drug concentration for a 50% growth inhibition, and m is the slope-factor describing the dose-response curve. Parameter Dm and m for each drug were estimated by non-linear regression using SigmaPlot (v. 9.0).

C. albicans 98-234 = experiment: In vitro susceptibility, broth microdilution (MIC, median-effect fit); assay type: cell-based; conditions: Candida albicans, 98234, strain 98-234
Experimental: as §1, §2, §3

C. albicans 98-17 = experiment: as above; assay type: cell-based; conditions: Candida albicans, 9817, strain 98-17
Experimental: as §1, §2, §3

[2] = AmB release from PEG-DSPE micelles using equilibrium dialysis; assay type: physicochemical; conditions: 25° C., 30 μg/mL AmB
Experimental: AmB release from PEG-DSPE micelles using equilibrium dialysis. AmB stock solutions (micelle encapsulated or dissolved in DMSO) were diluted to 30 μg/mL in HEPES buffer or in 4% BSA. These solutions were put in dialysis cassettes (MWCO 7000 g/mol, Pierce) and were placed in excess buffer (5 mM HEPES, pH 7.0). The MWCO of the dialysis membrane was chosen to allow for diffusion of AmB (molecular weight 924.1) while retaining large molecules such as bovine serum albumin (molecular weight 66 kDa) and intact micelles (molecular weight >100 kDa). Near-sink conditions for AmB were maintained by performing the release experiment in a 100-fold excess dialysis buffer. Because AmB is susceptible to degradation, the dialysis buffer was degassed overnight and 20 μg/mL propyl gallate was added as an antioxidant (15, 16). At predetermined time intervals, 100 μL samples were taken and AmB concentration in dialysis cassettes was determined using reversed-phase HPLC. […]
AmB release was fit to a first-order process of the form At/A0=a.e^−k.t by non-linear regression (SigmaPlot v.9.0). […] The half-life t1/2 for AmB release was calculated using t1/2=0.693/k.
For determination of AmB content, 15 μL samples were injected into 4.6 mm×150 mm Eclipse XDB-C8 reversed-phase column (Agilent Technologies) and AmB absorbance detected at 412 nm using the diode array detector. […]

[3] = Critical aggregation concentration (CAC) of AmB; assay type: physicochemical
4% BSA = 4% BSA (Bos taurus, UniProt P02769); experiment: Electronic absorption kinetics at 412 nm upon dilution in serum albumin; assay type: physicochemical, bovine; conditions: AmB 10 μg/mL
Experimental: Electronic absorption kinetics. Stock solutions containing AmB (micelle encapsulated or dissolved in DMSO) were added to 4% BSA, buffered to pH 7.0 with 10 mM HEPES. The final concentration of AmB was 10 μg/mL. For AmB dissolved in DMSO, the final DMSO content was less than 0.2%. Absorbance spectra were recorded from 300 to 450 nm at room temperature by using the Cary 50 spectrophotometer (Varian, Palo Alto, Calif.). Sequential spectra were acquired at 15 second intervals for the first 5 min; and at 1 minute intervals for an additional 40 minutes. A scan for baseline absorbance was taken before addition of AmB and was subtracted from each spectrum. The change in absorbance at 412 nm, […] was fit to a first-order process of the form A∞−At=a.e^−k.t using non-linear regression (SigmaPlot v.9.0).

[4] = >95% inhibition, 24 h, 35° C., read-out: Minimum Inhibitory Concentrations (MIC)
[5] = median-effect fit, read-out: Dm × 10^3 (concentration for 50% growth inhibition)

Chain of 4% BSA (P02769 25-607): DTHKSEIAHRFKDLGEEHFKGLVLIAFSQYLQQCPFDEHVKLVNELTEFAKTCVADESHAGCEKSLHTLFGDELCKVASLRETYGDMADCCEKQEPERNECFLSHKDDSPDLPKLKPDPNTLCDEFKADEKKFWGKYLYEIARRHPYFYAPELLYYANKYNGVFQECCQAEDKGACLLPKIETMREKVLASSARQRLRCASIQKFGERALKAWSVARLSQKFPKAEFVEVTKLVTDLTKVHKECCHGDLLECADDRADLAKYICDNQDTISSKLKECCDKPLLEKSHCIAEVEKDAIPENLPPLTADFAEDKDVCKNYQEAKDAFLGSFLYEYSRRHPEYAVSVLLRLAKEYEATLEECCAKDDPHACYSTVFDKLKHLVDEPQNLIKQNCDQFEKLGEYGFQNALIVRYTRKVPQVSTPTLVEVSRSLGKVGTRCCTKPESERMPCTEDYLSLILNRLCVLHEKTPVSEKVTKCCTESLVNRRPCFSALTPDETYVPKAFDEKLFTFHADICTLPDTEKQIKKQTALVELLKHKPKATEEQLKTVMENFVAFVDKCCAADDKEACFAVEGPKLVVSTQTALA

Row | SMILES | MIC ([1]; both isolates, 24 h) [µg/mL] | IC50 ([1]; range over isolates, read-out: Dm) [µg/mL] | MIC (C. albicans 98-234; [4]) [µg/mL] | IC50 (C. albicans 98-234; [5]) [µg/mL] | MIC (C. albicans 98-17; [4]) [µg/mL] | IC50 (C. albicans 98-17; [5]) [µg/mL] | 100 · k (AmB release, first-order fit) ([2]; 5 mM HEPES) [h⁻¹] | 100 · k (AmB release, first-order fit) ([2]; 4% BSA) [h⁻¹] | CAC ([3]; in 4% BSA) [µM] | CAC ([3]; in HEPES) [μMA] | A∞ (absorbance at 412 nm) (4% BSA) | 100 k (absorbance change at 412 nm) (4% BSA; room temperature) [min⁻¹]
1 | Nc1nc(=O)[nH]cc1F [5-FC, 5-fluorocytosine] | 0.1 | 0.04 to 0.07 | 0.1 | 39.8 ± 0.1 | 0.1 | 70.7 ± 7.3 |  |  |  |  |  | 
2 | C[C@@H]1[C@H](O)[C@@H](C)/C=C/C=C/C=C/C=C/C=C/C=C/C=C/[C@H](O[C@@H]2O[C@H](C)[C@@H](O)[C@H](N)[C@@H]2O)C[C@@H]2O[C@](O)(C[C@@H](O)C[C@@H](O)[C@H](O)CC[C@@H](O)C[C@@H](O)CC(=O)O[C@H]1C)C[C@H](O)[C@H]2C(=O)O [Free AmB, Amphotericin B] |  |  |  |  |  |  | 1.01 ± 0.10 | 3.72 ± 0.04 | 10 | 1 | 0.77 | 3.25 ± 0.23

From patent US20100210575A1, “STRUCTURING EFFECT OF CHOLESTEROL IN PEG-PHOSPHOLIPID MICELLES, DRUG DELIVERY OF AMPHOTERICIN B, AND COMBINATION ANTIFUNGALS” (WISCONSIN ALUMNI RESEARCH FOUNDATION, priority 2007, published 2010)
